Assay results published in patent US6541423B1, “4-(3′,4′-heterocyclyl benzoyl) pyrazoles as herbicidal agents” (BASF Aktiengesellschaft, priority 1999, dated 2003).

How the values were obtained:
[1] = system: CHEAL; assay: greenhouse post-emergence herbicidal test; type: in vivo, lambsquarters (goosefoot)
From the text: (§1) The culture containers used were plastic flowerpots containing loamy sand with approximately 3.0% of humus as substrate. The seeds of the test plants were sown separately for each species. For the post-emergence treatment, the test plants were first grown to a plant height of from 3 to 15 cm, depending on the plant habit, and only then treated with the active ingredients which had been suspended or emulsified in water. To this end, the test plants were either sown directly and grown in the same containers, or they were first grown separately as seedlings and transplanted into the test containers a few days prior to treatment. […] Depending on the species, the plants were kept at from 10 to 25° C., or 20-35° C., respectively. The test period extended over 2 to 4 weeks. During this time, the plants were tended, and their response to the individual treatments was evaluated. Evaluation was carried out using a scale of from 0 to 100. 100 means no emergence of the plants, or complete destruction of at least the aerial parts, and 0 means no damage, or normal course of growth. [table]

[2] = system: SOLNI; assay: greenhouse post-emergence herbicidal test; type: in vivo, black nightshade
From the text: as §1

[3] = system: STEME; assay: greenhouse post-emergence herbicidal test; type: in vivo, common chickweed
From the text: as §1

[4] = system: EPHHL; assay: greenhouse post-emergence herbicidal test; type: in vivo, spurge
From the text: as §1

[5] = system: MYOAR; assay: greenhouse post-emergence herbicidal test; type: in vivo, forget-me-not
From the text: as §1

[6] = system: PAPRH; assay: greenhouse post-emergence herbicidal test; type: in vivo, corn poppy
From the text: as §1

[7] = system: AVEFA; assay: greenhouse post-emergence herbicidal test; type: in vivo, wild oats
From the text: as §1

[8] = system: POLPE; assay: greenhouse post-emergence herbicidal test; type: in vivo, ladysthumb
From the text: as §1

[9] = system: AMARE; assay: greenhouse post-emergence herbicidal test; type: in vivo, redroot pigweed
From the text: as §1

[10] = system: ECHCG; assay: greenhouse post-emergence herbicidal test; type: in vivo, barnyard grass
From the text: as §1

[11] = system: GASPA; assay: greenhouse post-emergence herbicidal test; type: in vivo, smallflower; conditions: application rates 0.125 and 0.0625 kg/ha
From the text: as §1

[12] = system: LAMAM; assay: greenhouse post-emergence herbicidal test; type: in vivo, henbit
From the text: as §1

[13] = system: THLAR; assay: greenhouse post-emergence herbicidal test; type: in vivo, fanweed
From the text: as §1

[14] = system: wheat; assay: greenhouse post-emergence test, crop selectivity; type: in vivo, spring wheat; conditions: application rates 0.125 and 0.0625 kg/ha
From the text: as §1

[15] = system: GALAP; assay: greenhouse post-emergence herbicidal test; type: in vivo, catchweed bedstraw; conditions: application rates 0.5 and 0.25 kg/ha (a.s.)
From the text: The culture containers used were plastic flowerpots containing loamy sand with approximately 3.0% of humus as substrate. The seeds of the test plants were sown separately for each species. For the post-emergence treatment, the test plants were first grown to a plant height of from 3 to 15 cm, depending on the plant habit, and only then treated with the active ingredients which had been suspended or emulsified in water. To this end, the test plants were either sown directly and grown in the same containers, or they were first grown separately as seedlings and transplanted into the test containers a few days prior to treatment. The rate of application for the post-emergence treatment was 0.5 or 0.25 kg of a.s. (active. substance)/ha. Depending on the species, the plants were kept at from 10 to 25° C., or 20-35° C., respectively. The test period extended over 2 to 4 weeks. During this time, the plants were tended, and their response to the individual treatments was evaluated. Evaluation was carried out using a scale of from 0 to 100. 100 means no emergence of the plants, or complete destruction of at least the aerial parts, and 0 means no damage, or normal course of growth. [table]

[16] = application rates 0.25 and 0.125 kg/ha
[17] = application rates 0.125 and 0.0625 kg/ha
[18] = application rates 0.5 and 0.25 kg/ha (a.s.)
[19] = application rates 0.5 and 0.25 kg/ha

COCc1nc2c(C)c(C(=O)c3cnn(C(C)C)c3O)ccc2s1 [Example 36, 4-(2′-methoxymethyl-4′-methylbenzothiazol-5′-ylcarbonyl)-5-hydroxy-1-isopropylpyrazole]
very good herbicidal action: herbicidal action against CHEAL [1, 16] | herbicidal action against SOLNI [2, 16] | herbicidal action against STEME [3, 16] | herbicidal action against EPHHL [4, 16] | herbicidal action against MYOAR [5, 16] | herbicidal action against PAPRH [6, 16]

Cc1c(C(=O)c2cnn(C)c2OC(=O)C2CC2)ccc2scnc12 [Example 18, 4-(4′-methylbenzothiazol-5′-ylcarbonyl)-5-cyclopropylcarbonyloxy-1-methylpyrazole]
very good herbicidal action: herbicidal action against AVEFA [7, 16] | herbicidal action against CHEAL [1, 16] | herbicidal action against POLPE [8, 16] | herbicidal action against AMARE [9, 16] | herbicidal action against ECHCG [10, 16]

Cc1nc2c(C)c(C(=O)c3cnn(C)c3O)ccc2s1 [Example 14, 4-(2′,4′-dimethylbenzothiazol-5′-ylcarbonyl)-5-hydroxy-1-methylpyrazole]
very good herbicidal action: herbicidal action against GASPA [11] | herbicidal action against LAMAM [12, 17] | herbicidal action against STEME [3, 17] | herbicidal action against THLAR [13, 17]

Cc1c(C(=O)c2cnn(C)c2OCc2ccccc2)ccc2scnc12 [Example 13, 4-(4′-methylbenzothiazol-5′-ylcarbonyl)-5-benzyloxy-1-methylpyrazole]
very good herbicidal action: herbicidal action against CHEAL [1, 17] | herbicidal action against SOLNI [2, 17] | herbicidal action against EPHHL [4, 17] | herbicidal action against MYOAR [5, 17] | herbicidal action against PAPRH [6, 17]
selectivity in wheat: selectivity in wheat [14]

Cc1c(C(=O)c2cnn(C(C)C)c2O)ccc2scnc12 [Example 12, 4-(4′-methylbenzothiazol-5′-ylcarbonyl)-5-hydroxy-1-isopropylpyrazole]
very good herbicidal action: herbicidal action against CHEAL [1, 16] | herbicidal action against LAMAM [12, 16] | herbicidal action against STEME [3, 16] | herbicidal action against THLAR [13, 16] | herbicidal action against PAPRH [6, 16]

Cc1c(C(=O)c2cnn(C)c2OC(=O)c2cccc(F)c2)ccc2scnc12 [Example 16, 4-(4′-methylbenzothiazol-5′-ylcarbonyl)-5-(3″-fluorobenzoyl)oxy-1-methylpyrazole]
very good herbicidal action: herbicidal action against CHEAL [1, 18] | herbicidal action against POLPE [8, 18] | herbicidal action against GALAP [15] | herbicidal action against AMARE [9, 19] | herbicidal action against ECHCG [10, 19]

Cc1c(C(=O)c2cnn(C)c2O)ccc2scnc12 [Example 1, 4-[4′-Methylbenzothiazol-5′-ylcarbonyl]-5-hydroxy-1-methylpyrazole]
149 to 150 °C: melting point
very good herbicidal action: herbicidal action against AVEFA [7, 18] | herbicidal action against CHEAL [1, 18] | herbicidal action against POLPE [8, 18] | herbicidal action against SOLNI [2, 18] | herbicidal action against GALAP [15]

COCc1nc2c(C)c(C(=O)c3cnn(C)c3O)ccc2s1 [Example 34, 4-(2′-methoxymethyl-4′-methylbenzothiazol-5′-ylcarbonyl)-5-hydroxy-1-methylpyrazole]
very good herbicidal action: herbicidal action against CHEAL [1, 16] | herbicidal action against LAMAM [12, 16] | herbicidal action against STEME [3, 16] | herbicidal action against THLAR [13, 16] | herbicidal action against PAPRH [6, 16]

CCc1nc2c(C)c(C(=O)c3cnn(C(C)C)c3O)ccc2o1 [Example 31, 4-(2′-ethyl-4′-methylbenzoxazol-5′-ylcarbonyl)-5-hydroxy-1-isopropylpyrazole]
very good herbicidal action: herbicidal action against CHEAL [1, 16] | herbicidal action against POLPE [8, 16] | herbicidal action against LAMAM [12, 16] | herbicidal action against THLAR [13, 16] | herbicidal action against PAPRH [6, 16] | herbicidal action against AMARE [9, 16]

Cc1nc2c(C)c(C(=O)c3cnn(C(C)C)c3O)ccc2s1 [Example 33, 4-(2′,4′-dimethylbenzothiazol-5′-ylcarbonyl)-5-hydroxy-1-isopropylpyrazole]
very good herbicidal action: herbicidal action against CHEAL [1, 16] | herbicidal action against LAMAM [12, 16] | herbicidal action against THLAR [13, 16] | herbicidal action against MYOAR [5, 16] | herbicidal action against PAPRH [6, 16] | herbicidal action against AMARE [9, 16]

CCc1nc2c(C)c(C(=O)c3cnn(C)c3O)ccc2o1 [Example 30, 4-(2′-ethyl-4′-methylbenzoxazol-5′-ylcarbonyl)-5-hydroxy-1-methylpyrazole]
very good herbicidal action: herbicidal action against CHEAL [1, 16] | herbicidal action against POLPE [8, 16] | herbicidal action against LAMAM [12, 16] | herbicidal action against THLAR [13, 16] | herbicidal action against PAPRH [6, 16]

Cc1c(C(=O)c2cnn(C)c2OC(=O)c2ccccc2)ccc2scnc12 [Example 15, 4-(4′-methylbenzothiazol-5′-ylcarbonyl)-5-benzoyloxy-1-methylpyrazole]
very good herbicidal action: herbicidal action against AVEFA [7, 16] | herbicidal action against CHEAL [1, 16] | herbicidal action against POLPE [8, 16] | herbicidal action against AMARE [9, 16] | herbicidal action against ECHCG [10, 16]
